From patent publication US20260083865A1, “PROSTATE SPECIFIC MEMBRANE ANTIGEN (PSMA) LIGANDS AND USE THEREOF” (priority 2022, published 2026)
Like-named read-outs stand apart in the source and are kept apart here. Numbered stars: 1 amine (or outer) side, 2 acyl side, 3 side chain; on linkers, the order of the positions; unused ones are H or OH. Bridge positions count the residues as written; N and C are the ends. Square brackets hold non-standard residues; d marks the D form. Side chains are listed from the residue outwards. Peptide text beside a SMILES is read from it. * marks the point of attachment. TtdsdLys(DOTA)NH2 = NC(=O)[C@@H](CCCCNC(=O)CN1CCN(CC(=O)O)CCN(CC(=O)O)CCN(CC(=O)O)CC1)NC(=O)CCC(=O)NCCCOCCOCCOCCCN*; Acetyl(1-DOTA-4-piperidyl) = O=C(O)CN1CCN(CC(=O)O)CCN(CC(=O)N2CCC(CC(=O)*)CC2)CCN(CC(=O)O)CC1; DOTA = O=C(O)CN1CCN(CC(=O)O)CCN(CC(=O)*)CCN(CC(=O)O)CC1; Phe(3-Cl) = N[C@@H](Cc1cccc(Cl)c1)C(=O)O; Phe(4-Cl) = N[C@@H](Cc1ccc(Cl)cc1)C(=O)O; NMeT = CN[C@H](C(=O)O)[C@@H](C)O; X1 = O=C(CC1CCN([*:1])CC1)[*:2]; Cit = NC(=O)NCCC[C@H](N)C(=O)O; Tle = CC(C)(C)[C@H](N)C(=O)O; 4Amb = NCc1ccc(C(=O)O)cc1; Hexanoyl = CCCCCC(=O)*; AEEA = NCCOCCOCC(=O)O; Aib = CC(C)(N)C(=O)O

Assays:
[1] = biological target: T1, PSMA-expressing C4-2 cells (Homo sapiens, UniProt Q04609); assay: FACS binding assay (competition with 50 nM PSM-0183); conditions: read-out: pIC50 [C4-2] CAT (converted)
T1 construct: PSMA-expressing C4-2 cells (ATCC, Cat. No. CRL-3314) were cultured in RPMI-1640; host or cells: C4-2 cells
Method in brief: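 Competition format: fluorescent tracer PSM-0183 (50 nM) displaced from PSMA on C4-2 cells by a test compound titration over 1 h at 4 °C. Bound tracer was quantified as flow-cytometric AF488 median fluorescence after washing. Four-parameter logistic fits of MFI data gave IC50 and pIC50.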

PC3-PIP tumor model = tested on: PC3-PIP tumor model; design: species or system mice; conditions: mouse, in vivo
Text: Radioactively labeled compounds can be detected by imaging methods such as SPECT and PET. Furthermore, the data acquired by such techniques can be confirmed by direct measurement of radioactivity contained in the individual organs prepared from an animal injected with a radioactively labeled compound of the disclosure. Thus, the biodistribution (the measurement of radioactivity in individual organs) of a radioactively labeled compound can be determined and analyzed. […] All animal experiments were conducted in compliance with the German animal protection laws. Male swiss or NMRI nude mice (6-8 weeks old, Janvier Labs, France) were inoculated with 5×10^6 PC3-PIP cells in the right shoulder. For selected compounds an additional model was used, here male NMRI nude mice (6-8 weeks old, Janvier Labs, France) were inoculated with 5×10^6 or/1×10^7 C4-2 cells in the right shoulder. When tumors reached an appropriate size, the mice received ˜30 MBq ^111In-labeled compounds of the disclosure (diluted to 100 μL with PBS) administered intravenously via the tail vein. Images were obtained on a NanoSPECT/computed tomography system (Mediso Medical Imaging Systems, Budapest, Hungary) using exemplarily the following acquisition and reconstruction parameters (Table 10). [table] Imaging data were saved as DICOM files and analysed using VivoQuant™ software (Invicro, Boston, USA). In brief, regions of interest (ROIs) were drawn based on computed tomography images for the relevant organs and tissue regions such as heart (estimate of blood pool, bps), kidney, and tumor. The resulting numeric data expressed as a percentage of injected dose per gram of tissue (% ID/g) are presented in FIGS. 3(a)-3(ii) for the PC3-PIP model and FIGS. 4(a)-4(r) for the C4-2 model. Bars show mean % ID/g values of two to three animals per time point. Error bars indicate the value range (minimum and maximum values).

[2] = biological target: T2, Fc-fusion protein of human PSMA (hPSMA-Fc) (Homo sapiens, UniProt Q04609); assay: Surface plasmon resonance assay (Biacore T200, single cycle kinetic); type: binding; conditions: hPSMA-Fc, 25° C., read-out: pKD CAT (converted)
T2 construct: purchased Acro Biosystems PSA-H5264
Method in brief: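 KD, expressed as pKD, came from 1:1 Langmuir fits of reference- and buffer-blank-subtracted SPR data. The runs were single-cycle kinetics at 25° C in HBST/0.1% DMSO over human PSMA-Fc, captured to ~1000 RU on a peptide-coated CM5 surface and regenerated with 10 mM glycine pH 1.5.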

[3] = pIC50 category of FACS binding, C4-2 cells
[4] = pKD category for PSMA SPR activity assay
[5] = FACS binding, C4-2 cells, competition with 50 nM PSM-0183, category
[6] = SPR, single cycle kinetic, category
[7] = FACS binding, PSMA-expressing C4-2 cells, pIC50 category

T1 sequence (Q04609 whole entry): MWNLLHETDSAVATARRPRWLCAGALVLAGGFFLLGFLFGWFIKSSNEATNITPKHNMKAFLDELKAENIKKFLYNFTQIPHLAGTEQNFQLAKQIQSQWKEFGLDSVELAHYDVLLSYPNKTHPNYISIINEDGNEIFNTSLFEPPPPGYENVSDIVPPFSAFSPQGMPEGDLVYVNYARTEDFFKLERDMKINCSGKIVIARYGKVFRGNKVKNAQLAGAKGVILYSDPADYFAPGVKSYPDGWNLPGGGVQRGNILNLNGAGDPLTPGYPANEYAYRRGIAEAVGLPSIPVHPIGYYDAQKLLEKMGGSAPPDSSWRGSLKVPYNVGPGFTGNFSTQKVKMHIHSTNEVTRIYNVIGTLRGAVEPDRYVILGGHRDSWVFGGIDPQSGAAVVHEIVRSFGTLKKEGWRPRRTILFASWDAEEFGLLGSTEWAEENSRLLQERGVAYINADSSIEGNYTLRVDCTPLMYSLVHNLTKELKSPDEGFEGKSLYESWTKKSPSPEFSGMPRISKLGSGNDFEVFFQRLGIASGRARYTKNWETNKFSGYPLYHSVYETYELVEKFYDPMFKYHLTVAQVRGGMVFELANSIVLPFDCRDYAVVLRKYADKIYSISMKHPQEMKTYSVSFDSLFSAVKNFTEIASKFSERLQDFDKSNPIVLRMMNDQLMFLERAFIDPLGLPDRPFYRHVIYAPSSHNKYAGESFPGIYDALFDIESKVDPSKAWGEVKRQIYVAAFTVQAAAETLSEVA
T2 sequence (Q04609 44-750 limits assumed): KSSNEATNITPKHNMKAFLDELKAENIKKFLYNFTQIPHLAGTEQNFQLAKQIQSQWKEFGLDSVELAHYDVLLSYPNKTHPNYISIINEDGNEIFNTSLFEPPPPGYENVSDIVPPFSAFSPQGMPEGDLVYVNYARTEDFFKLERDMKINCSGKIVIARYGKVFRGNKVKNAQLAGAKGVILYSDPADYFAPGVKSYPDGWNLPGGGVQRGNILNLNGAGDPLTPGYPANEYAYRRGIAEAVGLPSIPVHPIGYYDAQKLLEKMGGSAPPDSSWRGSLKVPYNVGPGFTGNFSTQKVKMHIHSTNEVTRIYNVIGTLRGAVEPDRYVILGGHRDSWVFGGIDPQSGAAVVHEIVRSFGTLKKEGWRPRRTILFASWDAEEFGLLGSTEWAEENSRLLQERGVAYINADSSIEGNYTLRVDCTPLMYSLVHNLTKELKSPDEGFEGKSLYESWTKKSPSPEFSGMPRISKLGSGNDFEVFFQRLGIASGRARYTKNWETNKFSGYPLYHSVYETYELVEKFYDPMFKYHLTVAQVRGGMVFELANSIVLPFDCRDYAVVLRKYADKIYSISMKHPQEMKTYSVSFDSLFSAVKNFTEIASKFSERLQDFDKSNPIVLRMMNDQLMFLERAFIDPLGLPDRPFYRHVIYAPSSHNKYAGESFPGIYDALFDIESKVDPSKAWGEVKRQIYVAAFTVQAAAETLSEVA

SMILES	IC50 [1, 3] [nM]	AUC ratio [T/K] (PC3-PIP tumor model)	Tumor AUC (PC3-PIP tumor model) [% ID/g*h]	Kd [2, 4] [nM]	IC50 [1, 5] [nM]	Kd [2, 6] [nM]	IC50 [1, 7] [nM]	Kd ([2]; PSMA SPR assay, pKD category) [nM]
C[C@@H](O)[C@H](NC(=O)[C@@H](NC(=O)[C@@H]1CSSC[C@H](NC(=O)[C@H](Cc2ccc(Cl)cc2)NC(=O)C(C)(C)NC(=O)[C@@H](NC(=O)CC2CCN(C(=O)CN3CCN(CC(=O)O)CCN(CC(=O)O)CCN(CC(=O)O)CC3)CC2)[C@@H](C)O)C(=O)N[C@@H](CCCCN)C(=O)N[C@@H](CCCNC(N)=O)C(=O)NC(C)(C)C(=O)N[C@@H](CC(N)=O)C(=O)N1)C(C)(C)C)C(N)=O [PSM-0365, DOTA-Cmp-Thr-Aib-Pcf-[Cys-Lys-Cit-Aib-Asn-Cys]-Tle-Thr-NH2] ({DOTA}-[X1]T[Aib][Phe(4-Cl)]CK[Cit][Aib]NC[Tle]T-NH2; disulfide 5-10)	< 200	1.6	140	< 12.6				
CC(C)[C@H](NC(=O)[C@@H]1CSSC[C@H](NC(=O)[C@H](Cc2ccc(Cl)cc2)NC(=O)C(C)(C)NC(=O)[C@@H](NC(=O)CC2CCN(C(=O)CN3CCN(CC(=O)O)CCN(CC(=O)O)CCN(CC(=O)O)CC3)CC2)[C@@H](C)O)C(=O)N[C@@H](CCCCN)C(=O)N[C@@H](CCCNC(=N)N)C(=O)NC(C)(C)C(=O)N[C@@H](CC(N)=O)C(=O)N1)C(=O)N(C)[C@H](C(N)=O)[C@@H](C)O [PSM-0377, DOTA-Cmp-Thr-Aib-Pcf-[Cys-Lys-Arg-Aib-Asn-Cys]-Val-Nmt-NH2] ({DOTA}-[X1]T[Aib][Phe(4-Cl)]CKR[Aib]NCV[NMeT]-NH2; disulfide 5-10)	< 200	1.1	160	< 12.6				
CC(=O)N[C@H](C(=O)NC(C)(C)C(=O)N[C@@H](Cc1cccc(Cl)c1)C(=O)N[C@H]1CSSC[C@@H](C(=O)N[C@H](C(=O)N[C@H](C(N)=O)[C@@H](C)O)C(C)(C)C)NC(=O)[C@H](CC(N)=O)NC(=O)[C@H](CCCCNC(=O)COCCOCCNC(=O)CN2CCN(CC(=O)O)CCN(CC(=O)O)CCN(CC(=O)O)CC2)NC(=O)[C@H](CCCNC(=N)N)NC(=O)[C@H](CCCCN)NC1=O)[C@@H](C)O [PSM-0243, Ac-Thr-Aib-Mcf-[Cys-Lys-Arg-Lys(DOTA-O2Oc)-Asn-Cys]-Tle-Thr-NH2] (Ac-T[Aib][Phe(3-Cl)]CKRK([AEEA-DOTA])NC[Tle]T-NH2; disulfide 4-9)		0.53	130		< 200	< 12.6		
CCCCCC(=O)N[C@H](C(=O)NC(C)(C)C(=O)N[C@@H](Cc1ccc(Cl)cc1)C(=O)N[C@H]1CSSC[C@@H](C(=O)N[C@H](C(=O)N[C@H](C(=O)N[C@H](CCCCNC(=O)CC2CCN(C(=O)CN3CCN(CC(=O)O)CCN(CC(=O)O)CCN(CC(=O)O)CC3)CC2)C(N)=O)[C@@H](C)O)C(C)(C)C)NC(=O)[C@H](CC(N)=O)NC(=O)C(C)(C)NC(=O)[C@H](CCCNC(N)=O)NC(=O)[C@H](CCCCN)NC1=O)[C@@H](C)O [PSM-0239, Hex-Thr-Aib-Pcf-[Cys-Lys-Cit-Aib-Asn-Cys]-Tle-Thr-lys(DOTA-Cmp)-NH2] (Hexanoyl-T[Aib][Phe(4-Cl)]CK[Cit][Aib]NC[Tle]T[dK](Acetyl(1-DOTA-4-piperidyl))-NH2; disulfide 4-9)		1.2	210		< 200	< 12.6		
C[C@@H](O)[C@H](NC(=O)CN1CCN(CC(=O)O)CCN(CC(=O)O)CCN(CC(=O)O)CC1)C(=O)NC(C)(C)C(=O)N[C@@H](Cc1ccc(Cl)cc1)C(=O)N[C@H]1CSSC[C@@H](C(=O)N[C@H](C(N)=O)C(C)(C)C)NC(=O)[C@H](CC(N)=O)NC(=O)C(C)(C)NC(=O)[C@H](CCCNC(=N)N)NC(=O)[C@H](CCCCN)NC1=O [PSM-0534, DOTA-Thr-Aib-Pcf-[Cys-Lys-Arg-Aib-Asn-Cys]-Tle-NH2] ({DOTA}-T[Aib][Phe(4-Cl)]CKR[Aib]NC[Tle]-NH2; disulfide 4-9)	< 200	1.1	220	< 12.6				
C[C@@H](O)[C@H](NC(=O)[C@@H](NC(=O)[C@@H]1CSSC[C@H](NC(=O)[C@H](Cc2ccc(Cl)cc2)NC(=O)C(C)(C)NC(=O)c2ccc(CNC(=O)CN3CCN(CC(=O)O)CCN(CC(=O)O)CCN(CC(=O)O)CC3)cc2)C(=O)N[C@@H](CCCCN)C(=O)N[C@@H](CCCNC(=N)N)C(=O)NC(C)(C)C(=O)N[C@@H](CC(N)=O)C(=O)N1)C(C)(C)C)C(N)=O [PSM-0283, DOTA-Pamb-Aib-Pcf-[Cys-Lys-Arg-Aib-Asn-Cys]-Tle-Thr-NH2] ({DOTA-4Amb}-[Aib][Phe(4-Cl)]CKR[Aib]NC[Tle]T-NH2; disulfide 3-8)		1.6	200				< 200	< 12.6
C[C@@H](O)[C@H](NC(=O)CC1CCN(C(=O)CN2CCN(CC(=O)O)CCN(CC(=O)O)CCN(CC(=O)O)CC2)CC1)C(=O)NC(C)(C)C(=O)N[C@@H](Cc1ccccc1)C(=O)N[C@H]1CSSC[C@@H](C(=O)N[C@H](C(N)=O)C(C)(C)C)NC(=O)[C@H](CC(N)=O)NC(=O)C(C)(C)NC(=O)[C@H](CCCNC(=N)N)NC(=O)[C@H](CCCCN)NC1=O [PSM-0361, DOTA-Cmp-Thr-Aib-Phe-[Cys-Lys-Arg-Aib-Asn-Cys]-Tle-NH2] ({DOTA}-[X1]T[Aib]FCKR[Aib]NC[Tle]-NH2; disulfide 5-10)		0.85	110				< 200	< 12.6
CCCCCC(=O)N[C@H](C(=O)NC(C)(C)C(=O)N[C@@H](Cc1ccccc1)C(=O)N[C@H]1CSSC[C@@H](C(=O)N[C@H](C(=O)N[C@H](C(=O)N[C@@H](CC(=O)O)C(=O)NCCCOCCOCCOCCCNC(=O)CCC(=O)N[C@H](CCCCNC(=O)CN2CCN(CC(=O)O)CCN(CC(=O)O)CCN(CC(=O)O)CC2)C(N)=O)[C@@H](C)O)C(C)(C)C)NC(=O)[C@H](CC(N)=O)NC(=O)C(C)(C)NC(=O)[C@H](CCCNC(=N)N)NC(=O)[C@H](CCCCN)NC1=O)[C@@H](C)O [PSM-0425, Hex-Thr-Aib-Phe-[Cys-Lys-Arg-Aib-Asn-Cys]-Tle-Thr-Asp-Ttds-lys(DOTA)-NH2] (Hexanoyl-T[Aib]FCKR[Aib]NC[Tle]TD-{TtdsdLys(DOTA)NH2}; disulfide 4-9)	< 200	0.53	230	< 12.6				
CC(=O)N[C@H](C(=O)NC(C)(C)C(=O)N[C@@H](Cc1ccccc1)C(=O)N[C@H]1CSSC[C@@H](C(=O)N[C@H](C(=O)N[C@H](C(=O)N2CCC(CC(=O)N[C@H](CCCCNC(=O)CN3CCN(CC(=O)O)CCN(CC(=O)O)CCN(CC(=O)O)CC3)C(N)=O)CC2)[C@@H](C)O)C(C)(C)C)NC(=O)[C@H](CC(N)=O)NC(=O)C(C)(C)NC(=O)[C@H](CCCNC(=N)N)NC(=O)[C@H](CCCCN)NC1=O)[C@@H](C)O [PSM-0428, Ac-Thr-Aib-Phe-[Cys-Lys-Arg-Aib-Asn-Cys]-Tle-Thr-Cmp-lys(DOTA)-NH2] (Ac-T[Aib]FCKR[Aib]NC[Tle]T[X1][dK](DOTA)-NH2; disulfide 4-9)	< 200	1.2	170	< 12.6				
